Values of other authors in US20260284040A1, “COMBINATION OF A PARP1 INHIBITOR AND A SELECTIVE ESTROGEN DEGRADER FOR TREATING CANCER” (ASTRAZENECA AB, priority 2023, published 2026).

Legend:
[1] = test system: ER+ cell lines and PDX models; settings: wide range of ER+ cell lines and PDX models, including ESR1m models
[2] = in vivo
[3] = test system: human bone marrow progenitor cells; settings: in vitro

| Effects on human bone marrow progenitor cells [3] | Compound | Antitumour activities [1] | Oral bioavailability [2] |
| --- | --- | --- | --- |
| – | C[C@@H]1Cc2c(ccc3[nH]ncc23)[C@@H](c2ccc(NC3CN(CCCF)C3)cn2)N1CC(F)(F)F [Camizestrant, N-[1-(3-fluoropropyl)azetidin-3-yl]-6-[(6S,8R)-8-methyl-7-(2,2,2-trifluoroethyl)-6,7,8,9-tetrahydro-3H-pyrazolo[4,3-]isoquinolin-6-yl]-pyridin-3-amine] | demonstrated antitumour activities | orally bioavailable |
| reduced effects | CCc1cc2ncc(CN3CCN(c4ccc(C(=O)NC)nc4)CC3)cc2[nH]c1=O [AZD5305, 5-{4-[(7-ethyl-6-oxo-5,6-dihydro-1,5-naphthyridin-3-yl)methyl]piperazin-1-yl}-N-methylpyridine-2-carboxamide] | – | – |
| – | C[C@]12CC[C@@H]3c4ccc(O)cc4C[C@@H](CCCCCCCCC[S+]([O-])CCCC(F)(F)C(F)(F)F)[C@H]3[C@@H]1CC[C@@H]2O (stereo partly shown) [fulvestrant] | – | not orally bioavailable |
